Measured values published in PubChem BioAssay (NCI).
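GI50 = concentration required for 50% inhibition of growth. TGI is the concentration that stops growth completely.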

Key:
Assay in all cases: DTP human tumour cell line panel, 384-well format
SNB-19 CNS = system: SNB-19 CNS
SF-295 CNS = system: SF-295 CNS
SN12C renal = system: SN12C renal
MDA-MB-468 breast = system: MDA-MB-468 breast
SR leukemia = system: SR leukemia
OVCAR-8 ovarian = system: OVCAR-8 ovarian
SK-MEL-5 melanoma = system: SK-MEL-5 melanoma
MOLT-4 leukemia = system: MOLT-4 leukemia
TK-10 renal = system: TK-10 renal
SF-268 CNS = system: SF-268 CNS
SNB-75 CNS = system: SNB-75 CNS
NCI-H23 lung = system: NCI-H23 lung
M14 melanoma = system: M14 melanoma
SK-OV-3 ovarian = system: SK-OV-3 ovarian
SF-539 CNS = system: SF-539 CNS
SK-MEL-28 melanoma = system: SK-MEL-28 melanoma
NCI-H322M lung = system: NCI-H322M lung
OVCAR-5 ovarian = system: OVCAR-5 ovarian
MALME-3M melanoma = system: MALME-3M melanoma
COLO 205 colon = system: COLO 205 colon
UACC-257 melanoma = system: UACC-257 melanoma
DU-145 prostate = system: DU-145 prostate
T-47D breast = system: T-47D breast
PC-3 prostate = system: PC-3 prostate
UACC-62 melanoma = system: UACC-62 melanoma
HS 578T breast = system: HS 578T breast
UO-31 renal = system: UO-31 renal
HCT-116 colon = system: HCT-116 colon
SW-620 colon = system: SW-620 colon
SK-MEL-2 melanoma = system: SK-MEL-2 melanoma
EKVX NSCLC = system: EKVX NSCLC
HL-60(TB) leukemia = system: HL-60(TB) leukemia
OVCAR-4 ovarian = system: OVCAR-4 ovarian
RXF 393 renal = system: RXF 393 renal
786-0 renal = system: 786-0 renal
NCI-H226 lung = system: NCI-H226 lung
MCF7 breast = system: MCF7 breast
ACHN renal = system: ACHN renal
HOP-62 NSCLC = system: HOP-62 NSCLC
BT-549 breast = system: BT-549 breast
IGROV1 ovarian = system: IGROV1 ovarian
CAKI-1 renal = system: CAKI-1 renal
A498 renal = system: A498 renal
HCT-15 colon = system: HCT-15 colon
MDA-MB-435 melanoma = system: MDA-MB-435 melanoma
MDA-MB-231 breast = system: MDA-MB-231 breast
LOX IMVI melanoma = system: LOX IMVI melanoma
NCI/ADR-RES ovarian = system: NCI/ADR-RES ovarian

Compound: Nc1nc2cc(-c3ccc4ncc(C(=O)N5CCOCC5)n4c3)ccc2o1
- GI50 (SNB-19 CNS): > 73.8 µM
- TGI (SNB-19 CNS): > 100 µM
- TGI (SF-295 CNS): > 95.1 µM
- GI50 (SN12C renal): 7.67 µM
- TGI (SN12C renal): > 100 µM
- GI50 (MDA-MB-468 breast): 3.93 µM
- TGI (MDA-MB-468 breast): > 92.3 µM
- GI50 (SR leukemia): 12.2 µM
- TGI (SR leukemia): > 100 µM
- GI50 (OVCAR-8 ovarian): > 78.2 µM
- TGI (OVCAR-8 ovarian): > 100 µM
- GI50 (SK-MEL-5 melanoma): 5.97 µM
- TGI (SK-MEL-5 melanoma): > 59.6 µM
- GI50 (MOLT-4 leukemia): 3.45 µM
- TGI (MOLT-4 leukemia): 19.9 µM
- GI50 (TK-10 renal): 5.17 µM
- TGI (TK-10 renal): 53.7 µM
- GI50 (SF-268 CNS): 35.1 µM
- TGI (SF-268 CNS): > 100 µM
- GI50 (SNB-75 CNS): 10.2 µM
- TGI (SNB-75 CNS): > 75 µM
- GI50 (NCI-H23 lung): 5.59 µM
- TGI (NCI-H23 lung): > 100 µM
- GI50 (M14 melanoma): 11.6 µM
- TGI (M14 melanoma): > 100 µM
- GI50 (SK-OV-3 ovarian): 2.09 µM
- TGI (SK-OV-3 ovarian): 12.3 µM
- GI50 (SF-539 CNS): > 60.9 µM
- TGI (SF-539 CNS): > 100 µM
- GI50 (SK-MEL-28 melanoma): > 57.6 µM
- TGI (SK-MEL-28 melanoma): > 100 µM
- GI50 (NCI-H322M lung): 6.17 µM
- TGI (NCI-H322M lung): > 100 µM
- GI50 (OVCAR-5 ovarian): 7.68 µM
- TGI (OVCAR-5 ovarian): > 100 µM
- GI50 (MALME-3M melanoma): 2.78 µM
- TGI (MALME-3M melanoma): > 68.5 µM
- GI50 (COLO 205 colon): 10.2 µM
- TGI (COLO 205 colon): > 100 µM
- GI50 (UACC-257 melanoma): > 100 µM
- TGI (UACC-257 melanoma): > 100 µM
- GI50 (DU-145 prostate): 21.3 µM
- TGI (DU-145 prostate): > 100 µM
- GI50 (T-47D breast): 0.574 µM
- TGI (T-47D breast): 3.14 µM
- GI50 (PC-3 prostate): 5.45 µM
- TGI (PC-3 prostate): > 100 µM
- GI50 (UACC-62 melanoma): 66.4 µM
- TGI (UACC-62 melanoma): > 100 µM
- GI50 (HS 578T breast): 6.07 µM
- TGI (HS 578T breast): 66.2 µM
- GI50 (UO-31 renal): 8.62 µM
- TGI (UO-31 renal): > 100 µM
- GI50 (HCT-116 colon): 5.23 µM
- TGI (HCT-116 colon): > 100 µM
- GI50 (SW-620 colon): 17.7 µM
- TGI (SW-620 colon): > 91.4 µM
- GI50 (SK-MEL-2 melanoma): 30 µM
- TGI (SK-MEL-2 melanoma): > 100 µM
- GI50 (EKVX NSCLC): 5.01 µM
- TGI (EKVX NSCLC): > 100 µM
- GI50 (HL-60(TB) leukemia): 5.36 µM
- TGI (HL-60(TB) leukemia): > 78 µM
- GI50 (OVCAR-4 ovarian): > 40.7 µM
- TGI (OVCAR-4 ovarian): > 100 µM
- GI50 (RXF 393 renal): 40.2 µM
- TGI (RXF 393 renal): > 100 µM
- GI50 (786-0 renal): > 75.6 µM
- TGI (786-0 renal): > 100 µM
- GI50 (NCI-H226 lung): > 40.4 µM
- TGI (NCI-H226 lung): > 100 µM
- GI50 (MCF7 breast): 1.45 µM
- TGI (MCF7 breast): > 100 µM
- GI50 (ACHN renal): 8.58 µM
- TGI (ACHN renal): > 100 µM
- GI50 (HOP-62 NSCLC): > 26.4 µM
- TGI (HOP-62 NSCLC): > 100 µM
- GI50 (BT-549 breast): 23.7 µM
- TGI (BT-549 breast): > 100 µM
- GI50 (IGROV1 ovarian): 1.85 µM
- TGI (IGROV1 ovarian): 5.23 µM
- GI50 (CAKI-1 renal): 6.74 µM
- TGI (CAKI-1 renal): > 100 µM
- GI50 (A498 renal): 5.93 µM
- TGI (A498 renal): > 100 µM
- GI50 (HCT-15 colon): 6.21 µM
- TGI (HCT-15 colon): > 100 µM
- GI50 (MDA-MB-435 melanoma): 24.2 µM
- TGI (MDA-MB-435 melanoma): > 100 µM
- GI50 (MDA-MB-231 breast): 9.02 µM
- TGI (MDA-MB-231 breast): > 100 µM
- GI50 (LOX IMVI melanoma): 19.5 µM
- TGI (LOX IMVI melanoma): > 100 µM
- GI50 (NCI/ADR-RES ovarian): > 100 µM
- TGI (NCI/ADR-RES ovarian): > 100 µM
